Data on eight molecules can be found in publication PMC10094617, “Iron(III) Complexes with Non-Steroidal Anti-Inflammatory Drugs: Structure, Antioxidant and Anticholinergic Activity, and Interaction with Biomolecules” (International Journal of Molecular Sciences, 2023).

Each structure is given as a SMILES string. Structures can show the parent of a compound that is named as a salt.

Data set [1] can be described thus: DPPH radical scavenging. The following applies: compound 0.1 mM, ethanol. It counts as biochemical. As to the method: (§1) The antioxidant activity of complexes 1–3 was evaluated via their ability to scavenge the free radicals DPPH, hydroxyl, and ABTS. Each experiment was performed in triplicate and the standard deviation of absorbance was less than 10% of the mean.
Ethanol was also used as a control solution. The absorbance at 517 nm was recorded at room temperature, two times, after 20 and 60 min, in order to examine the time-dependence of the DPPH-scavenging activity. The DPPH-scavenging activity of the compounds was expressed as the percentage reduction of the absorbance values of the initial DPPH solution (RA%). The compounds NDGA and BHT were used as reference compounds.

The target in data set [2] is T1, equine serum butyrylcholinesterase (eqBuChE) (Equus caballus, UniProt P81908).
T1 construct: purchased J&K Scientific Co. (Beijing, China); host or cells: equine serum (by the product's name)
Kind of data set: Inhibition of butyrylcholinesterase (modified Ellman's method). It counts as biochemical. The note with it: for inhibition at 1000 µM: read-out: BuChE (I%) inhibition rate; for SI (selectivity index = IBuChE/IAChE): ratio of inhibition rates at 10^−3 M. As for the experimental part:
(§2) In the study of cholinesterase inhibitors, the inhibitory effect of the compounds (the NSAIDs and their complexes 1–3) against AChE and BuChE was examined using a modified methodology based on Ellman’s method.
(§3) The ability of the compounds to inhibit AChE and BuChE was evaluated using UV-vis spectroscopy. All the assays were carried out in a 0.1M NaH2PO4/Na2HPO4 buffer at a pH = 7.4. Enzyme solutions were prepared with 2.0 U/mL for AChE and 3.0 U/mL for BuChE. A reaction mixture containing 20 μL of phosphate buffer, 100 μL of DTNB (1-mM), and 40 μL of the enzyme (AChE and BuChE) was incubated with 20 μL of the compounds at various concentrations at 37 °C for 15 min. The reaction was started by the addition of the substrate (20-μL) of ATCI or BTCI solution (1-mM), respectively, and incubation for additional 3 min.
(§4) The enzyme activity was determined by measuring the increase in absorbance at 2-min intervals at 412 nm at 37 °C (ε = 14,150 M^−1cm^−1).
The rate of inhibition of each enzyme by the compounds was calculated according to the following expression:(1) I%=(1−VB/VA)×100 where VB and VA indicate the absorbance measured for ChEs in the presence and absence of inhibitors, respectively. […] Neostigmine methyl sulfate was used as the appropriate standard.
For orientation: In Ellman's method for cholinesterases, released thiocholine reacts with DTNB.

For data set [3], the target named is T2, electric eel acetylcholinesterase (eeAChE) (Electrophorus electricus, UniProt O42275).
T2 construct: purchased J&K Scientific Co. (Beijing, China)
The data set can be described thus: Inhibition of acetylcholinesterase (modified Ellman's method). The note with it: 10^−3 M of the compound, pH 7.4, 37 °C; for inhibition at 1000 µM: read-out: AChE (I%) inhibition rate. It counts as biochemical. As to the method: as §2, §3, §4
The rate of inhibition of each enzyme by the compounds was calculated according to the following expression:(1) I%=(1−VB/VA)×100 where VB and VA indicate the absorbance measured for ChEs in the presence and absence of inhibitors, respectively. The results are expressed as the average of three repetitions of the tests performed and the standard deviation was less than 3% of the mean. The selectivity index (SI), defined as IC50 BuChE/IC50 AChE, was also calculated. Neostigmine methyl sulfate was used as the appropriate standard.

In data set [4] the test system is EB–DNA adduct (CT DNA). Kind of data set: EB-displacement from EB–DNA adduct (fluorescence emission). It counts as binding, calf. As to the method:
EB-displacement studies: The competition of complexes 1–3 with EB was investigated by fluorescence emission spectroscopy in order to examine whether the complexes can displace EB from its DNA–EB conjugate. The DNA–EB conjugate was prepared by adding 20-μM EB and 26-μM CT DNA in the buffer solution (150-mM NaCl and 15-mM trisodium citrate at pH 7.0). The possible intercalating effect of the complexes was studied by the addition of a certain amount of a solution of the compound into a solution of the DNA–EB conjugate. The influence of each compound to the DNA–EB complex solution was obtained by recording the changes in the fluorescence emission spectra with the excitation wavelength (λex) at 540 nm.
The Stern–Volmer constant KSV is used to evaluate the quenching efficiency for each compound according to the Stern–Volmer equation (Equation (3)), where Io and I are the emission intensities in the absence and the presence of the quencher, respectively, and [Q] is the concentration of the quencher (i.e., complexes 1–3). The value of KSV is obtained from the Stern–Volmer plots by using the slope of the diagram Io/I versus [Q]. Taking τo = 23 ns as the fluorescence lifetime of the EB–DNA system, the EB–DNA quenching constants (Kq, in M^−1s^−1) of the compounds can be determined according to Equation (4).

The nature of data set [5]: Competition with DMSO for hydroxyl radicals. It counts as biochemical. The note with it: compound 0.1 mM; 30 min, 37 °C, pH 7.4. As for the experimental part:
as §1
Competition of the tested compounds with DMSO for hydroxyl radicals: The hydroxyl radicals generated by the Fe^3+/ascorbic acid system were detected according to Nash by the determination of formaldehyde produced from the oxidation of DMSO [155]. The reaction mixture contained EDTA (0.1 mM), Fe^3+ (167 μM), DMSO (33 mM) in phosphate buffer (50 mM, pH 7.4), complexes 1–3 (concentration 0.1 mM), and ascorbic acid (10 mM). After a 30-min incubation at 37 °C, the reaction was stopped with CCl3COOH (17% w/v) and the absorbance at λ = 412 nm was measured. Trolox was used as a reference compound. The competition of the compounds with DMSO for •OH, generated by the Fe^3+/ascorbic acid system, expressed as the percentage of inhibition of formaldehyde production, was used for the evaluation of their hydroxyl radical-scavenging activity (OH%).

Data set [6] in a line: ABTS radical cation scavenging. The note with it: compound 0.1 mM; 1 min after mixing. In kind it is biochemical. As to the method: as §1
Assay of radical cation scavenging activity (ABTS^+•): An ABTS cationic radical (ABTS^+•) was produced by reacting an aqueous stock solution (2 mM) of ABTS with 0.17-mM potassium persulfate and allowing the mixture to stand in the dark at room temperature for 12–16 h before use. […] Although the oxidation of ABTS commenced immediately, the absorbance became maximal and stable after 6 h. The radical was stable in this form for more than two days when stored in the dark at room temperature. The ABTS radical solution was diluted with ethanol to an absorbance of 0.70 at 734 nm. After the addition of 10 μL of complexes 1–3 or the standards (0.1 mM) in DMSO, the absorbance was recorded exactly 1 min after initial mixing. The radical scavenging activity of the complexes was expressed as the percentage inhibition of the absorbance of the initial ABTS solution (ABTS%). Trolox was used as a reference compound.

A short description of data set [7]: Solubility of the complexes. It counts as physicochemical.
On the set-up of data set [8]: method as in PMID 8216032. The note with it: cited from earlier work.
Data set [9] has as its target calf-thymus (CT) DNA. More on the design: method as in PMID 3427013. The following applies: cited from earlier work.
Where [10] appears, read: 10^−3 M of the compound, pH 7.4, 37 °C.

T2 sequence (O42275 24-633): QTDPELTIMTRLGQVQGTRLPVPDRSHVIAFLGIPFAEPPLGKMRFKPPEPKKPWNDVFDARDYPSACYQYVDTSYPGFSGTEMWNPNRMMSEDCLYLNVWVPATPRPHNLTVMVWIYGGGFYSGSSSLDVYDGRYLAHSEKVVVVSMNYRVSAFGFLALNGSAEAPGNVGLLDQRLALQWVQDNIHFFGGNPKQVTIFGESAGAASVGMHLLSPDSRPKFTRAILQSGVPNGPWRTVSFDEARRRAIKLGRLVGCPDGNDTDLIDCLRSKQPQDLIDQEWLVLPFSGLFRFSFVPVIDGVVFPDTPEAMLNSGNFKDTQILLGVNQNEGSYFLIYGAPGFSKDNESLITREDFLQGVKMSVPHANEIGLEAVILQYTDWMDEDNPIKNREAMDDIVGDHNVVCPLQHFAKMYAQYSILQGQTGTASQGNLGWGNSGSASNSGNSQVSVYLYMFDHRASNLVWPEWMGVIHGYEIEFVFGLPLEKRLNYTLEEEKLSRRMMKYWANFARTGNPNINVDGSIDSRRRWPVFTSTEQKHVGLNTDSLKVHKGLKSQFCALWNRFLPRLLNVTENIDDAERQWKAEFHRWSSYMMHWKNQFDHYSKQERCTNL
T1 sequence (P81908 whole entry): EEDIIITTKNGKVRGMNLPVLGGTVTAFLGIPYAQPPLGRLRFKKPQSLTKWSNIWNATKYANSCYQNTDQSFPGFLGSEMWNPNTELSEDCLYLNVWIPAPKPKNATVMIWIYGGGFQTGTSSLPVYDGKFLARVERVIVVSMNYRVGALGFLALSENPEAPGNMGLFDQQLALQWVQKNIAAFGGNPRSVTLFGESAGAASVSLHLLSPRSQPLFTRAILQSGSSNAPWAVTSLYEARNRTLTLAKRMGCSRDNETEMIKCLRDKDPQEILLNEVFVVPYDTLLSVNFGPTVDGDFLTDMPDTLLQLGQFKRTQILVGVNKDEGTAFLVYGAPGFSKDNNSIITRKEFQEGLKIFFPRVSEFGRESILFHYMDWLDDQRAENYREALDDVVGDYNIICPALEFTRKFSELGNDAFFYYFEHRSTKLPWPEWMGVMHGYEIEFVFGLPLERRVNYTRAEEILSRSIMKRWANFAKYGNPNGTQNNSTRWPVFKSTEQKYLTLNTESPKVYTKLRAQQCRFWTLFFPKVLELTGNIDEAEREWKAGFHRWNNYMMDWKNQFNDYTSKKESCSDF

As to `Cc1cc(C(C)(C)C)c(O)c(C(C)(C)C)c1` [BHT, butylated hydroxytoluene], in data set [1], the “DPPH% (DPPH scavenging ability), 20 min” value was 31.30 ± 0.10% and the “DPPH% (DPPH scavenging ability), 60 min” value was 60.00 ± 0.38%.
Turning to `C[O-].C[O-].O.O=C([O-])c1cc(-c2ccc(F)cc2F)ccc1[O-].O=C([O-])c1cc(-c2ccc(F)cc2F)ccc1[O-].[Fe+3].[Fe+3].c1cnc2c(c1)ccc1cccnc12.c1cnc2c(c1)ccc1cccnc12` [Complex 1, [Fe2(difl)2(MeO)2(phen)2]∙H2O], the “BuChE (I%) inhibition rate” value in [2] (setting [10]) is given as 79.25 ± 2.00%. In addition, in data set [3], the “AChE (I%) inhibition rate” value was found to be 1.77 ± 0.82%. For the same molecule, the “KSV Stern–Volmer constant (EB–DNA)” value in data set [4] (EB–DNA fluorescence) is reported as 6.37 (±0.40) × 10^5 M^−1. The “ΔI/Io (%) EB–DNA fluorescence quenching” value in data set [4] ([EB] = 20 μM, [DNA] = 26 μM, λex 540 nm, λem 592 nm) turned out to be 66.8%. Moreover, the “Kq quenching constant of the EB–DNA fluorescence” value in [4] (τo = 23 ns) is 2.77 (±0.10) × 10^13 M^−1s^−1. Also, in [1], the “DPPH% (DPPH scavenging ability), 20 min” value worked out at 12.57 ± 0.29% and the “DPPH% (DPPH scavenging ability), 60 min” value is listed as 15.86 ± 0.62%. The “OH% (competition % with DMSO for hydroxyl radical)” value (shortened to “OH%”) in data set [5] came out at 91.08 ± 1.81%. In addition, the “ABTS% (ABTS radical scavenging activity)” value in data set [6] is listed as 85.38 ± 0.92%. In data set [7], the solubility entry was “Soluble in DMF and DMSO”.
Usually inhibition stands for the percentage by which the read-out fell short of the control. Regarding `O=C(O)c1cc(-c2ccc(F)cc2F)ccc1O` [Complex H2difl, Diflunisal], the results for the inhibition at 1000 µM in [2] (setting [10]) and in data set [3] were 22.9 ± 1.71% and 17.2 ± 1.46%, respectively. The “SI (selectivity index = IBuChE/IAChE)” value in [2] was 1.32. Also, in [8], the “half-life period of activity” value is ~ 12 h. Besides, the “DPPH% (DPPH scavenging ability), 20 min” value in data set [1] is 10.42 ± 0.56%. The “DPPH% (DPPH scavenging ability), 60 min” value in [1] is reported as 14.31 ± 0.45%. In addition, the “OH%” value in data set [5] stood at 86.06 ± 0.38%. Besides, the “ABTS% (ABTS radical scavenging activity)” value in data set [6] stood at 76.58 ± 0.74%.
Consider `CC[n+]1c(-c2ccccc2)c2cc(N)ccc2c2ccc(N)cc21.[Br-]` [EB, 3,8-diamino-5-ethyl-6-phenyl-phenanthridinium bromide], for which the “Kb DNA-binding constant of the classical intercalator EB” value in data set [9] is on record as 1.23 (±0.07) × 10^5 M^−1.
On to `CC(Cc1ccc(O)c(O)c1)C(C)Cc1ccc(O)c(O)c1` (centres unmarked) [NDGA, nordihydroguaiaretic acid], for which, in data set [1], the “DPPH% (DPPH scavenging ability), 20 min” value came out at 81.02 ± 0.18% and the “DPPH% (DPPH scavenging ability), 60 min” value amounted to 82.60 ± 0.17%.
`O=C(O)Cc1ccccc1Nc1c(Cl)cccc1Cl` [Nadicl, Sodium diclofenac]: the figures for the inhibition at 1000 µM in data set [2] (setting [10]) and in data set [3] were 14.1 ± 0.12% and 10.3 ± 1.75%, respectively. Moreover, the “SI (selectivity index = IBuChE/IAChE)” value in data set [2] is 1.37. Moreover, the “DPPH% (DPPH scavenging ability), 20 min” value in [1] is listed as 18.26 ± 0.60%. Moreover, the “DPPH% (DPPH scavenging ability), 60 min” value in [1] is listed as 17.43 ± 0.23%. Besides, the “OH%” value in [5] turned out to be 75.46 ± 0.44%. Further, the “ABTS% (ABTS radical scavenging activity)” value in data set [6] is listed as 76.35 ± 0.75%.
As for `CN(C)C(=O)Oc1cccc([N+](C)(C)C)c1` [Neo, Neostigmine methyl sulfate], the inhibition at 1000 µM came to 98.4 ± 1.55% in data set [2] (setting [10]) and 96.98 ± 0.02% in data set [3]. In addition, in [2], the “SI (selectivity index = IBuChE/IAChE)” value is 1.01.
Turning to `Cc1c(C)c2c(c(C)c1O)CCC(C)(C(=O)O)O2` (centres unmarked) [Trolox, 6-hydroxy-2,5,7,8-tetramethylchromane-2-carboxylic acid, reference compound], the “OH%” value in data set [5] worked out at 82.80 ± 0.13%. The “ABTS% (ABTS radical scavenging activity)” value in data set [6] stood at 91.8 ± 0.17%.
